Test results: patent US20080221052A1, “Modulation of Wrn-Mediated Telomere-Initiated Cell Signaling” (priority 2004, published 2008)
{P} = phosphate

Tests used:
[1] = system: S91 mouse melanoma cells; assay: Melanin content of S91 mouse melanoma cells; format: cell-based; conditions: 6 days
Method: FIG. 4 is a bar graph showing the melanin content (in pg/cell) of cells treated with diluent, pTpT or pTspT.
FIG. 5 is a bar graph showing the melanin content (in pg/cell) of cells treated with diluent, 11 mer-1 or 11 mer-1-S.
Cultures of S91 mouse melanoma cells (100,000 cells/38 cm^2) were treated with 100 μM pTpT or phosphorothioate pTpT (pTspT) (FIG. 4) or 40 μM 11 mer-1 or the phosphorothioate 11 mer-1 (11 mer-1-S) (FIG. 5) for 6 days and were then collected, counted and assayed for melanin content.

[2] = system: S91 cells; assay: UV-induced melanogenesis in S91 cells (melanin content, OD 475 nm); format: cell-based, mouse; conditions: 100 μM, one week
Source text: FIG. 6 is a bar graph showing the melanin content (in pg/cell) of cells that have been sham-treated (no irradiation, no oligonucleotides), or treated with ultraviolet light (UV), or unirradiated but given pTspT, or irradiated with UV and given pTspT.
Duplicate cultures of S91 cells (100,000 cells/39 cm^2) were either sham-irradiated or irradiated with 5 mJ/cm^2 solar-simulated light from a 1 kW xenon arc solar-simulator (XMN 1000-21, Optical Radiation, Azuza, Calif.) metered at 285 5 nm using a research radiometer (model IL1700A, International Light, Newburyport, Mass.). Two sham-irradiated plates were then supplemented with 100 μM pTspT and two irradiated cultures were similarly treated with pTspT. After one week, cells were collected, counted and analyzed for melanin content by dissolving the cell pellets in 1 N NaOH and measuring the optical density at 475 nm. […] However, this response was blocked by the addition of pTspT (FIG. 6). In addition, the constitutive pigmentation of these cells was reduced by the pTspT in the sham-irradiated cultures, similar to the data presented in FIGS. 4 and 5.

[3] = system: Jurkat cells; assay: FACS analysis of propidium iodide stained Jurkat cells (S phase, sub-G0/G1 apoptosis); format: cell-based, human
Method: FIGS. 1A-1H show FACS analysis of propidium iodide stained Jurkat cells (immortalized T lymphocytes), treated with diluent (FIGS. 1A and 1E); 40 μM 11 mer-1 pGTTAGGGTTAG (SEQ ID NO: 2) (FIGS. 1B and 1F); 40 μM 11 mer-2 pCTAACCCTAAC (SEQ ID NO: 3) (FIGS. 1C and 11G); 40 μM 11 mer-3 pGATCGATCGAT (SEQ ID NO: 4) (FIGS. 1D and 1H). Jurkat cells were treated with the stated reagents for 48 hours before analysis (FIG. 1A-1D) or 72 hours (FIGS. 1E-1H).
FIGS. 2A-2F are profiles showing the results of fluorescence activated cell sorting, for the following additions to the cells: FIG. 2A, diluent; FIG. 2B, 0.4 μM 11 mer-1; FIG. 2C, 0.4 μM 11 mer-1-S; FIG. 2D, diluent; FIG. 2E, 40 μM 11 mer-1; FIG. 2F, 40 μM 11 mer-1-S.
Oligonucleotides homologous to the telomere overhang repeat sequence (TTAGGG; SEQ ID NO: 1), sequence (11 mer-1: pGTTAGGGTTAG; SEQ ID NO: 2), complementary to this sequence (11 mer-2: pCTAACCCTAAC; SEQ ID NO: 3) and unrelated to the telomere sequence (11 mer-3: pGATCGATCGAT; SEQ ID NO: 4) were added to cultures of Jurkat cells, a line of human T cells reported to undergo apoptosis in response to telomere disruption. Within 48 hours, 50% of the cells treated with 40 μM of SEQ ID NO: 2 had accumulated in the S phase, compared to 25-30% for control cells (p<0.0003, non-paired t-test; see FIGS. 1A-1D), and by 72 hours, 13% of these cells were apoptotic as determined by a sub-G0/G1 DNA content, compared to 2-3% of controls (p<0.007, non-paired t-test; see FIGS. 1E-1H). At 96 hours, 20±3% of the 11 mer-1 treated cells were apoptotic compared with 3-5% of controls (p<0.0001, non-paired t-test). To exclude preferential uptake of the 11 mer-1 as an explanation of its singular effects, Jurkat cells were treated with oligonucleotides labeled on the 3′ end with fluorescein phosphoramidite, then subjected to confocal microscopy and FACS analysis. The fluorescence intensity of the cells was the same after all treatments at 4 hours and 24 hours.
Cultures of Jurkat human T cells were treated with either diluent, 11 mer-1 (SEQ ID NO: 1) or the phosphorothioate 11 mer-1 (11 mer-1-S) for 96 hours, then collected and processed for FACS analysis. Two concentrations of the oligonucleotides were tested, 0.4 μM (FIGS. 2A-2C) and 40 μM (FIGS. 2D-2F).

[4] = system: p53, E2F1 transcription factor; assay: Western analysis of p53 and E2F1 in Jurkat cells; format: cell-based, human; conditions: by 24 hours after addition
[5] = system: keratinocyte cell line (SSC12F); assay: S-phase arrest by FACS in keratinocyte cell line; format: cell-based; conditions: 48 hours, 11 mer-1 alone (10 μM per FIG. 3B); diluent control 26%
Method: FIGS. 3A-3G are profiles showing the results of fluorescence activated cell sorting, for the following additions to the cells: FIG. 3A, diluent; FIG. 3B, 10 μM 11 mer-1; FIG. 3C, 10 μM 11 mer-1 and 1 μM 11 mer-1-S; FIG. 3D, 10 μM 11 mer-1 and 5 μM 11 mer-1-S; FIG. 3E, 10 μM 11 mer-1 and 10 μM 11 mer-1-S; FIG. 3F, 20 μM 1 mer-1-S; FIG. 3G, 10 μM 11 mer-1-S.
Forty-three percent of the cells were in the S phase, compared to 26% of the control, diluent-treated cells.

[6] = target: T1, WRN (Homo sapiens, UniProt Q14191); assay: WRN siRNA knock-down and T-oligo response, western blot in normal neonatal fibroblasts; format: cell-based; conditions: 40 μM T-oligo, 24 or 48 hours, WRN siRNA-treated cells
T1 construct: endogenous in cells; host or cells: normal neonatal fibroblasts
T1 sequence (Q14191 whole entry): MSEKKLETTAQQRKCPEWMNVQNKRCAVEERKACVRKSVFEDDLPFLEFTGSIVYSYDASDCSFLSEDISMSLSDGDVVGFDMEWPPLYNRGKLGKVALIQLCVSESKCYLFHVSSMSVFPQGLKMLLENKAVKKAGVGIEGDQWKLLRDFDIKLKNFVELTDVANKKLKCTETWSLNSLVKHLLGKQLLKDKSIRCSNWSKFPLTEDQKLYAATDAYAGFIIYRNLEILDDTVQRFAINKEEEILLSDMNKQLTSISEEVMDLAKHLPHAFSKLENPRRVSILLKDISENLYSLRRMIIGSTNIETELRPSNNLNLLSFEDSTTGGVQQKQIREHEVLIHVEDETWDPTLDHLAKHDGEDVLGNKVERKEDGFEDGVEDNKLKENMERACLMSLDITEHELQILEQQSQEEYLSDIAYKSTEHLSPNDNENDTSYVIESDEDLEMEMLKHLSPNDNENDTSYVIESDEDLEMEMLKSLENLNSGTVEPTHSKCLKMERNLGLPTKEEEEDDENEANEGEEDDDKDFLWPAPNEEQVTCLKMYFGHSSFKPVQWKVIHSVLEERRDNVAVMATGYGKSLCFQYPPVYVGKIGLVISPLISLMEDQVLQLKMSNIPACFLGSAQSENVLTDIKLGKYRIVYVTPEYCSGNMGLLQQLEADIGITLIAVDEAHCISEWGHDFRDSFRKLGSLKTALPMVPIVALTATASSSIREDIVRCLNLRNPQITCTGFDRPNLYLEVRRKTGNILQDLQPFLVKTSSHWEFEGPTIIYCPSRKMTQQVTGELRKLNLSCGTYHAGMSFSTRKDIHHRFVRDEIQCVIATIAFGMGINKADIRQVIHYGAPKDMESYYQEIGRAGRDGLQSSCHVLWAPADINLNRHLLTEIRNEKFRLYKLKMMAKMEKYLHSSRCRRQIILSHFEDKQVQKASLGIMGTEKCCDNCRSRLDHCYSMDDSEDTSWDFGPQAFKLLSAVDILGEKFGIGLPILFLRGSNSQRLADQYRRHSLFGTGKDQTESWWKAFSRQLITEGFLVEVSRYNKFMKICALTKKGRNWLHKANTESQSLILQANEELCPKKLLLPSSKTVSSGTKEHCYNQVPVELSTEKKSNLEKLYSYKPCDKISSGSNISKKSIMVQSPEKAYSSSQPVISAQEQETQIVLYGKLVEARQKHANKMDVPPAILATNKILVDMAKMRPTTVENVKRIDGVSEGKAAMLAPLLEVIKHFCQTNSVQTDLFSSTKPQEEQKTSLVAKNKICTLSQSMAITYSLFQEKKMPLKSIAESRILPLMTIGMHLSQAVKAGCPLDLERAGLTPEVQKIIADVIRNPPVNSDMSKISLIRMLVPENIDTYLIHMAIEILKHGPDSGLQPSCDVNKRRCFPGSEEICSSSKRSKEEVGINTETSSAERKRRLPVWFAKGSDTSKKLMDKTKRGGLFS
Method: Protein level of WRN on the day of T-oligo treatment is indicated at “0 Hrs”. T-oligo (40 μM, T) or diluent (D) were added and cells collected after 24 or 48 hours for western analysis. Control fibroblasts were either sham (IR, −) or irradiated with 10 Gy IR (IR, +) and collected after one hour. The western blot was probed with antibodies, recognizing WRN, p53 phosphoserine 15 or phospho H2AX.
Normal neonatal fibroblasts were treated on 2 consecutive days with 50 ρmol of WRN siRNA or […] of siRNA directed against the control green fluorescent protein (GFP). One day after the second siRNA treatment, representative cultures were collected for western blot analysis to assess the effectiveness of the WRN siRNA in eliminating the protein. Also at this time, duplicate cultures of WRN siRNA-treated or GFP siRNA-treated cultures were given either 40 μM T-oligo (11 mer-1; SEQ ID NO: 2) or an equal amount of diluent. Cells from all conditions were collected one or two days after the addition of T-oligo or diluent and were analyzed by western blot for p53 phosphorylation on serine 15 and phosphorylation of histone H2AX, both well-documented DNA damage responses (Lambert et al., 1998, J Biol Chem 273, 33048-53; Burma et al., 2001, J Biol Chem 276, 42462-7). Also as controls, cell lysates from cells sham-irradiated or irradiated with 10 Gy ionizing radiation (1R) were included. […]

[7] = system: DNA-PKCS; assay: Western blot with antibody against ATM phosphoserine 1981 in normal newborn fibroblasts; format: cell-based; conditions: 40 μM, 4-48 hours
Method: The positions of ATM and DNA-PKCS are indicated. Sham and irradiated (10 Gy IR) fibroblasts were included as controls.
Normal newborn fibroblasts were treated with 40 μM T-oligo or an equal volume of diluent for 4, 6, 8, 16, 24 or 48 hours then collected and analyzed by Western blot using an antibody against ATM phosphoserine 1981. […] The phosphorylated protein was shown in subsequent experiments to co-migrate with the catalytic subunit of ATM-related DNA-dependent protein kinase (DNA-PKCS), which would reasonably be expected to bind an antibody raised against the highly homologous ATM protein.

[8] = system: p53 serine 37; assay: Western analysis of p53 phosphorylated on serine 37 in newborn fibroblasts; format: cell-based; conditions: 40 μM

Substance	constitutive pigmentation ([1]; 100 μM)	stimulation of melanogenesis (melanin content) ([1]; 100 μM)	UV-induced doubling of melanin content ([2]; 5 mJ/cm^2 solar-simulated light)	constitutive pigmentation ([2]; sham-irradiated cultures)	effect on exponentially growing cell cycle profile ([3]; 0.4 μM, 96 hours)	apoptotic cells (sub-G0/G1 DNA content) ([3]; 40 μM, 72 hours, controls 2-3%)	apoptosis (sub-G0/G1 peak) ([3]; 40 μM, 96 hours)	cells accumulated in the S phase ([3]; 40 μM, within 48 hours, control cells 25-30%)	apoptotic cells ([3]; 96 hours, controls 3-5%)	level of the E2F1 transcription factor [4]	p53 level [4]	cells in the S phase [5]	stimulation of melanogenesis (melanin content) ([1]; 40 μM)	ability to induce phosphorylation of H2AX after WRN knock-down [6]	ability to induce phosphorylation of p53 (serine 15) after WRN knock-down [6]	phosphorylation of 450 kDa protein (DNA-PKCS) [7]	phosphorylation of p53 serine 37 [8]
pTspT	reduced the constitutive pigmentation	did not	blocked	reduced	–	–	–	–	–	–	–	–	–	–	–	–	–
pGTTAGGGTTAG (DNA, 5' {P}, backbone not given here) [11 mer-1]	–	–	–	–	neither of the oligonucleotides affected	13%	induced extensive apoptosis	50%	20±3%	concomitant increase	increase	Forty-three	stimulated melanogenesis	dramatically reduced	dramatically reduced	leads to phosphorylation	phosphorylated
pTpT	–	stimulated melanogenesis	–	–	–	–	–	–	–	–	–	–	–	–	–	–	–
